Laboratory results from PMC3433420 (PLoS ONE, 2012).
Residues, ends and D or L forms follow the SMILES beside them.

Key:
Assay in all cases: FP saturation binding assay
[1] = target: T1, PIK3R3-NC tandem SH2 domains (Homo sapiens, UniProt Q92569); conditions: high-confidence ErbB interactions
T1 construct: the tandem protein was included in our analysis with all internal amino acids linking the domains; 6X His; thioredoxin; made in house; host or cells: E. coli BL21(DE3)pLysS
Outline: (§1)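 Rhodamine-labeled peptides (10 nM final) were titrated with 12 SH2 domain concentrations (0.002–10 µM) in 20 mM HEPES, 100 mM KCl, 0.1% Tween-20, 5 mM DTT, pH 7.8. After 20 min at room temperature in the dark, FP (ex 530/em 555 nm) was read. KDs came from nonlinear least-squares fits.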

[2] = target: T2, RASA1-NC tandem SH2 domains (Homo sapiens, UniProt P20936); conditions: high-confidence ErbB interactions
T2 construct: the tandem protein was included in our analysis with all internal amino acids linking the domains; 6X His; thioredoxin; made in house; host or cells: E. coli BL21(DE3)pLysS
T2 sequence (P20936 181-441 limits assumed): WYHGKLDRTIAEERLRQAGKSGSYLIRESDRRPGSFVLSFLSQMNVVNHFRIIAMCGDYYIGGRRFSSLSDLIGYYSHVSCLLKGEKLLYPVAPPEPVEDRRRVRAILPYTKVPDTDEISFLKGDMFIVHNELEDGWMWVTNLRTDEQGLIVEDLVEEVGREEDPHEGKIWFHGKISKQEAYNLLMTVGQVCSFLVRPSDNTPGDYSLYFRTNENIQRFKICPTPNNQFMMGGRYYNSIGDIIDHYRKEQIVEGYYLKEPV
Outline: as §1

[3] = target: T3, LYN SH2 domain (Homo sapiens, UniProt P07948); conditions: high-confidence ErbB interactions
T3 construct: 93 SH2 and 2 PTB domain-containing constructs; 6X His; thioredoxin; made in house; host or cells: E. coli BL21(DE3)pLysS
Outline: as §1

[4] = target: T4, PTK6 SH2 domain (Homo sapiens, UniProt Q13882); conditions: high-confidence ErbB interactions
T4 construct: from the PTK6 SH2 domain; 6X His; thioredoxin; made in house; host or cells: E. coli BL21(DE3)pLysS
Outline: as §1

[5] = target: T5, PIK3R3-N SH2 domain (Homo sapiens, UniProt Q92569); conditions: high-confidence ErbB interactions
T5 construct: 6X His; thioredoxin; made in house; host or cells: E. coli BL21(DE3)pLysS
Outline: as §1

[6] = target: T6, LCK SH2 domain (Homo sapiens, UniProt P06239); conditions: high-confidence ErbB interactions
T6 construct: 93 SH2 and 2 PTB domain-containing constructs; 6X His; thioredoxin; made in house; host or cells: E. coli BL21(DE3)pLysS
Outline: as §1

[7] = target: T7, YES1 SH2 domain (Homo sapiens, UniProt P07947); conditions: high-confidence ErbB interactions
T7 construct: 6X His; thioredoxin; made in house; host or cells: BL21(DE3)pLysS E. coli
Outline: as §1

[8] = target: PIK3R2-NC tandem SH2 domains (Homo sapiens, UniProt O00459)
[9] = protein LCK, FP, mean of replicate hits
[10] = protein YES1, FP, mean of replicate hits
[11] = Protein PIK3R3-N, FP saturation binding, mean over replicate hits
[12] = Protein PIK3R3-NC, FP saturation binding, mean over replicate hits
[13] = Protein YES1, FP saturation binding, mean over replicate hits

Sequence of PIK3R2-NC tandem SH2 domains (O00459 330-716 limits assumed): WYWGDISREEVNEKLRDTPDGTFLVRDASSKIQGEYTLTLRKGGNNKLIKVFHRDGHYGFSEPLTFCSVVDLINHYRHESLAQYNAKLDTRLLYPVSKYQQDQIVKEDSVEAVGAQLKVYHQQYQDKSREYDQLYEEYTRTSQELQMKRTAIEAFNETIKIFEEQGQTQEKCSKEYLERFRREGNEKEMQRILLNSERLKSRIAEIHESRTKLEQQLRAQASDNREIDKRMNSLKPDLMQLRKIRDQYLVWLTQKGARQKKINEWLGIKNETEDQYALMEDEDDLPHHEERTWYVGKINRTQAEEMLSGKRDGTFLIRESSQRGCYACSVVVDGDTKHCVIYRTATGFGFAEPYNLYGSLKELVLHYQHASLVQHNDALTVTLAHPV
T4 sequence (Q13882 78-170 limits assumed): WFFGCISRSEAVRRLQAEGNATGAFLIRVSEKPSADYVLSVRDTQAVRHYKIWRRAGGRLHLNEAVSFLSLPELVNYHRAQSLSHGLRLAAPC
T6 sequence (P06239 127-224 limits assumed): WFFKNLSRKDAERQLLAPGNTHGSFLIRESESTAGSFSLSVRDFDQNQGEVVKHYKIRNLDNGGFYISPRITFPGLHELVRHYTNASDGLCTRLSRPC
T7 sequence (P07947 158-255 limits assumed): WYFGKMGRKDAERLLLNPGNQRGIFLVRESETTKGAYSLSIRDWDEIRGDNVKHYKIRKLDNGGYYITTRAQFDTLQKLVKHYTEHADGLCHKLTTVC
T3 sequence (P07948 129-226 limits assumed): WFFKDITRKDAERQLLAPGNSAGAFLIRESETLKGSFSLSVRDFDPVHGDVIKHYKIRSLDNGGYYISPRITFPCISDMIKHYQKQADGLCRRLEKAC

## CSCC[C@H](NC(=O)[C@H](Cc1ccc(OP(=O)(O)O)cc1)NC(=O)CNC(=O)[C@H](CCC(=O)O)NC(=O)[C@H](CCC(=O)O)NC(=O)[C@H](CC(=O)O)NC(=O)[C@H](CC(C)C)NC(=O)[C@H](CCC(=O)O)NC(=O)CNC(=O)[C@H](CCCNC(=N)N)NC(=O)[C@@H]1CCCN1)C(=O)N[C@H](C(=O)N1CCC[C@H]1C(=O)N[C@@H](CCSC)C(=O)N[C@@H](CCCNC(=N)N)C(=O)N[C@@H](CC(=O)O)C(=O)N[C@@H](CCCCN)C(=O)N[C@@H](CC(=O)O)C(=O)O)[C@@H](C)O [ErbB4 1150 18-mer] (HELM PEPTIDE1{P.R.G.E.L.D.E.E.G.[O=C([C@H](Cc1ccc(OP(=O)(O)O)cc1)N[*:1])[*:2]].M.T.P.M.R.D.K.D}$$$$V2.0)
[1]; protein PIK3R3-NC, FP, mean of replicate hits
  Kd: 2.5 µM
[2]; protein RASA1-NC, FP, mean of replicate hits
  Kd: 0.41 µM

## CC(C)C[C@H](NC(=O)[C@H](Cc1ccc(OP(=O)(O)O)cc1)NC(=O)[C@H](CC(C)C)NC(=O)[C@@H]1CCCN1C(=O)[C@H](CCC(=O)O)NC(=O)[C@H](CC(N)=O)NC(=O)[C@@H](NC(=O)[C@H](Cc1ccc(O)cc1)NC(=O)[C@H](CCC(=O)O)NC(=O)[C@H](CC(=O)O)NC(=O)[C@@H](N)CCC(=O)O)C(C)C)C(=O)N[C@@H](CC(N)=O)C(=O)N[C@H](C(=O)N[C@@H](Cc1ccccc1)C(=O)N[C@@H](C)C(=O)N[C@@H](CC(N)=O)C(=O)N[C@H](C(=O)N[C@@H](CC(=O)O)C(=O)O)[C@@H](C)O)[C@@H](C)O [ErbB4 1208 18-mer] (HELM PEPTIDE1{E.D.E.Y.V.N.E.P.L.[O=C([C@H](Cc1ccc(OP(=O)(O)O)cc1)N[*:1])[*:2]].L.N.T.F.A.N.T.D}$$$$V2.0)
[1]; protein PIK3R3-NC, mean of replicate hits
  Kd: 3.02 µM
[3]; protein LYN, mean of replicate hits
  Kd: 5.15 µM
[4]; protein PTK6, mean of replicate hits
  Kd: 15.5 µM
[2]; protein RASA1-NC, mean of replicate hits
  Kd: 6.39 µM

## CSCC[C@H](NC(=O)[C@H](CCC(=O)O)NC(=O)[C@H](CCC(=O)O)NC(=O)[C@H](Cc1ccc(OP(=O)(O)O)cc1)NC(=O)CNC(=O)[C@H](CCC(N)=O)NC(=O)[C@H](CCC(=O)O)NC(=O)[C@@H](N)CO)C(=O)N[C@@H](CCCNC(=N)N)C(=O)N[C@@H](C)C(=O)N[C@@H](Cc1ccccc1)C(=O)N[C@@H](CCC(N)=O)C(=O)N[C@@H](CC(=O)O)C(=O)O [ErbB3 1289 13-mer] (HELM PEPTIDE1{S.E.Q.G.[O=C([C@H](Cc1ccc(OP(=O)(O)O)cc1)N[*:1])[*:2]].E.E.M.R.A.F.Q.D}$$$$V2.0)
[5]; protein PIK3R3-N, FP, mean of replicate hits
  Kd: 0.3 µM
[6]; [9]
  Kd: 2.23 µM
[7]; [10]
  Kd: 5.91 µM

## CC(C)C[C@H](NC(=O)[C@H](Cc1ccc(OP(=O)(O)O)cc1)NC(=O)[C@H](CCC(=O)O)NC(=O)[C@H](CCC(=O)O)NC(=O)[C@H](C)NC(=O)[C@@H](N)CC(=O)O)C(=O)N[C@H](C(=O)N1CCC[C@H]1C(=O)N[C@@H](CCC(N)=O)C(=O)N[C@@H](CCC(N)=O)C(=O)NCC(=O)N[C@@H](Cc1ccccc1)C(=O)N[C@@H](CC(=O)O)C(=O)O)C(C)C [ErbB2 1023 13-mer] (HELM PEPTIDE1{D.A.E.E.[O=C([C@H](Cc1ccc(OP(=O)(O)O)cc1)N[*:1])[*:2]].L.V.P.Q.Q.G.F.D}$$$$V2.0)
[8]
  Kd: 6.09 µM
[5]; [11]
  Kd: 5.27 µM
[1]; [12]
  Kd: 10.7 µM
[4]; Protein PTK6, FP saturation binding, mean over replicate hits
  Kd: 3.76 µM
[2]; Protein RASA1-NC, FP saturation binding, mean over replicate hits
  Kd: 6.65 µM

## CC(C)C[C@H](NC(=O)[C@H](CC(N)=O)NC(=O)[C@@H](N)CC(=O)O)C(=O)N[C@@H](Cc1ccc(O)cc1)C(=O)N[C@@H](Cc1ccc(OP(=O)(O)O)cc1)C(=O)N[C@@H](Cc1c[nH]c2ccccc12)C(=O)N[C@@H](CC(=O)O)C(=O)N[C@@H](CCC(N)=O)C(=O)N[C@@H](CC(=O)O)C(=O)N1CCC[C@H]1C(=O)N1CCC[C@H]1C(=O)N[C@@H](CCC(=O)O)C(=O)N[C@@H](CC(=O)O)C(=O)O [ErbB2 1222 13-mer] (HELM PEPTIDE1{D.N.L.Y.[O=C([C@H](Cc1ccc(OP(=O)(O)O)cc1)N[*:1])[*:2]].W.D.Q.D.P.P.E.D}$$$$V2.0)
[8]
  Kd: 7.81 µM
[5]; [11]
  Kd: 9.63 µM
[1]; [12]
  Kd: 10.3 µM
[3]; Protein LYN, FP saturation binding, mean over replicate hits
  Kd: 4.18 µM
[6]; Protein LCK, FP saturation binding, mean over replicate hits
  Kd: 7.7 µM
[7]; [13]
  Kd: 1.52 µM

## CC(C)[C@H](NC(=O)[C@H](CC(=O)O)NC(=O)[C@@H]1CCCN1C(=O)[C@H](CCC(N)=O)NC(=O)[C@H](CC(N)=O)NC(=O)[C@@H](NC(=O)[C@H](Cc1ccc(OP(=O)(O)O)cc1)NC(=O)[C@H](CCC(=O)O)NC(=O)[C@@H]1CCCN1C(=O)[C@H](CCC(N)=O)NC(=O)[C@@H]1CCCN1)C(C)C)C(=O)N[C@@H](CCCNC(=N)N)C(=O)N[C@@H](CC(=O)O)C(=O)O [ErbB2 1139 13-mer] (HELM PEPTIDE1{P.Q.P.E.[O=C([C@H](Cc1ccc(OP(=O)(O)O)cc1)N[*:1])[*:2]].V.N.Q.P.D.V.R.D}$$$$V2.0)
[8]
  Kd: 5.81 µM
[5]; [11]
  Kd: 9.05 µM
[1]; [12]
  Kd: 5.18 µM
[7]; [13]
  Kd: 13.4 µM

## CSCC[C@H](NC(=O)[C@H](Cc1ccc(OP(=O)(O)O)cc1)NC(=O)[C@H](CCC(=O)O)NC(=O)[C@H](Cc1ccc(O)cc1)NC(=O)CNC(=O)[C@@H](N)CC(C)C)C(=O)N[C@@H](CC(=O)O)C(=O)N[C@H](C(=O)NCC(=O)N[C@@H](CO)C(=O)N[C@@H](CC(=O)O)C(=O)N[C@@H](CC(C)C)C(=O)N[C@@H](CC(=O)O)C(=O)O)C(C)C [ErbB3 1224 13-mer] (HELM PEPTIDE1{L.G.Y.E.[O=C([C@H](Cc1ccc(OP(=O)(O)O)cc1)N[*:1])[*:2]].M.D.V.G.S.D.L.D}$$$$V2.0)
[8]
  Kd: 3.31 µM
[3]; protein LYN, FP, mean of replicate hits
  Kd: 6.86 µM
[6]; [9]
  Kd: 3.02 µM
[4]; protein PTK6, FP, mean of replicate hits
  Kd: 6.58 µM
[7]; [10]
  Kd: 2.52 µM
